The target in data set [1] is T1, human Kv4.3/KChIP2.2 potassium channel (Homo sapiens, UniProt Q9UK17).
T1 construct: expressed in transfected cells
T1 sequence (Q9UK17 1-655): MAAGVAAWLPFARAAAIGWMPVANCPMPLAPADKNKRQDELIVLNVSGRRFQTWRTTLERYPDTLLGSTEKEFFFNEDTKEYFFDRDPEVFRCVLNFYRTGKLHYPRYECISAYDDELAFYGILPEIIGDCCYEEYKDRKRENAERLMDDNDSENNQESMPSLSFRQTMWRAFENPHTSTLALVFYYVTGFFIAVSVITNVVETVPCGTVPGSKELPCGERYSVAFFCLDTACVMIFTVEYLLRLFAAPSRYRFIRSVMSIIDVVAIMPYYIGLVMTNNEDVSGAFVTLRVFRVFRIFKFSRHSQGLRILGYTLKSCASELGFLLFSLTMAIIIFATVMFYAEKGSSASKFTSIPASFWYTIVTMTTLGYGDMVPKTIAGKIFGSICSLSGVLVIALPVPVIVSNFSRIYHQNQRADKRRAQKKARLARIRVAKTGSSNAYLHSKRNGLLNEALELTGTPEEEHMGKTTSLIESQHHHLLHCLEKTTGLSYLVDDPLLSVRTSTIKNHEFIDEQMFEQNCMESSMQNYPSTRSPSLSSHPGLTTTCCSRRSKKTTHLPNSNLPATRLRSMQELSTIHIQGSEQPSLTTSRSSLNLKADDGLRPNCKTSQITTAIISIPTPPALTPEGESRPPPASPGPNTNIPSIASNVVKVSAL
T1 sequence (Q9NS61 1-270 partner): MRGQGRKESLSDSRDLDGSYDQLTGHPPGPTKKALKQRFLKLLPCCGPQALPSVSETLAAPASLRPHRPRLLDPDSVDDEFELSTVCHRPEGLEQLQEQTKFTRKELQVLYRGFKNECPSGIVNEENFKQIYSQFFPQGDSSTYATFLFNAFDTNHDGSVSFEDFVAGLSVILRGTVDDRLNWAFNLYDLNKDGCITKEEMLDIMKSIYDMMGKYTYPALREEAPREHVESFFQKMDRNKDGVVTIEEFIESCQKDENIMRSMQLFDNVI
Nature of the data set: Whole cell patch clamp, CHO-K1 cells stably expressing Kv4.3/KChIP2.2. In kind it is cell-based. The note with it: for remaining activity at 1 µM: CHO-K1. On the procedure:
For this experiment, a recombinant CHO-K1 cell line stably expressing the human Kv4.3/KChIP2.2 potassium channel was used.
Protocol B: The cells were cultured in 94 mm culture dishes under the culturing conditions of 5% CO2 and 37° C. Subculturing was performed every 3-4 days, by removing the media and then rising the dish with 8 ml PBS (phosphate buffered saline). The PBS was removed and 1 ml Trypsin/EDTA was added to the cells. The cells were incubated about 2 min at 37° C. or 5 min at room temperature and then the dish was rapped to detach and singularize the cells. To inactivate the enzyme 9 ml of media was added and the solution was pipetted up and down to break up clumps of cells. Part of the suspension was then transferred to a new 94 mm dish and media was added to a final volume of 8 ml. If necessary the cells could be seeded onto 35 mm or 94 mm dishes (2 ml media per 35 mm dish and 8 ml media per 94 mm dish). The media was changed every 2-3 days. The media used was the solution for culturing the cells described above. For stable cells antibiotic G418, Hygromycin, Blasticidin, or Zeocin were not added.
The preparation of cells for electrophysiological experiments was performed as described in protocol C hereunder.
Protocol C: The transfected cells and stable cells were transferred from 35 mm cell culture dishes onto coverslips using cold PBS: The media was removed and 0.3 ml of PBS (4-10° C.) was added. The cells were incubated 5 min at room temperature. The dish was rapped to detach and singularize the cells and 1.7 ml media was added and the solution pipetted up and down to break up clumps of cells. Part of the cell suspension was then transferred to a 35 mm dish with coverslips and media. The transfected cells and stable cells could also be transferred from 35 mm cell culture dishes onto coverslips using trypsin: The media was removed and the dish rinsed with 3 ml PBS. The PBS was removed and 0.3 ml 1× Trypsin/EDTA was added and the cells incubated 5 min at room temperature. The dish was rapped to detach and singularize the cells and 1.7 ml media was added and the solution pipetted up and down to break up clumps of cells. Part of the cell suspension was then transferred to a 35 mm dish with coverslips and media.
10 mM stock solutions of the compounds were prepared in DMSO. Solutions of the compounds were prepared by dilution of stock solution in bath solution. If the required stock solution volume was theoretically below 1 μl, bath solutions with higher compound concentration were used for dilution. The maximal DMSO concentration during experiments was 0.1% (v/v).
For patch clamp experiments, the following solutions in demineralized water as vehicle were used (concentration in mM).
Bath (external) solution: 4 KCl, 135 NaCl, 2 CaCl2, 1 MgCl2, 10 D(+)-Glucose, 5 HEPES, pH 7.4 (NaOH).
Pipette (internal) solution: 130 KCl, 1 MgCl2, 10 EGTA, 5 Na2ATP, 5 HEPES, pH 7.4 (KOH).
Experiments were performed using a patch clamp set-up.
Measurements were performed at room temperature (20-25° C.). […] Each cell acted as its own control. The effect of compounds on Kv4.3/KChIP2.2 mediated currents was investigated at one concentration ([…]) with two replicates each (c=1, n=2).
The test protocols are illustrated in FIG. 1 and Table 4. […] Each test protocol consisted of 4 segments.
Subsequently, 14 test pulses (series 1; FIG. 1b and Table 4b) were applied at 0.1 Hz under constant superfusion with bath solution. The protocol was initiated by a voltage jump to −100 mV (400 ms) to achieve full inactivation. Then the Kv4.3/KChIP2.2 channels were transferred to the open state by depolarization to +40 mV for 300 milliseconds (activation). Only cells generating current amplitudes between 1 nA and 50 nA were used for the experimental procedure. No or negligible rundown was observed.
Then, 36 test pulses (series 2) were applied at 0.1 Hz under constant superfusion with the compound dissolved in bath solution. […]

For another data set, the target named is hERG potassium channel (Homo sapiens, UniProt Q12809). Nature of the data set: Whole cell patch clamp, HEK 293 T-REx HERG cells.
hERG potassium channel, sequence (Q12809 whole entry): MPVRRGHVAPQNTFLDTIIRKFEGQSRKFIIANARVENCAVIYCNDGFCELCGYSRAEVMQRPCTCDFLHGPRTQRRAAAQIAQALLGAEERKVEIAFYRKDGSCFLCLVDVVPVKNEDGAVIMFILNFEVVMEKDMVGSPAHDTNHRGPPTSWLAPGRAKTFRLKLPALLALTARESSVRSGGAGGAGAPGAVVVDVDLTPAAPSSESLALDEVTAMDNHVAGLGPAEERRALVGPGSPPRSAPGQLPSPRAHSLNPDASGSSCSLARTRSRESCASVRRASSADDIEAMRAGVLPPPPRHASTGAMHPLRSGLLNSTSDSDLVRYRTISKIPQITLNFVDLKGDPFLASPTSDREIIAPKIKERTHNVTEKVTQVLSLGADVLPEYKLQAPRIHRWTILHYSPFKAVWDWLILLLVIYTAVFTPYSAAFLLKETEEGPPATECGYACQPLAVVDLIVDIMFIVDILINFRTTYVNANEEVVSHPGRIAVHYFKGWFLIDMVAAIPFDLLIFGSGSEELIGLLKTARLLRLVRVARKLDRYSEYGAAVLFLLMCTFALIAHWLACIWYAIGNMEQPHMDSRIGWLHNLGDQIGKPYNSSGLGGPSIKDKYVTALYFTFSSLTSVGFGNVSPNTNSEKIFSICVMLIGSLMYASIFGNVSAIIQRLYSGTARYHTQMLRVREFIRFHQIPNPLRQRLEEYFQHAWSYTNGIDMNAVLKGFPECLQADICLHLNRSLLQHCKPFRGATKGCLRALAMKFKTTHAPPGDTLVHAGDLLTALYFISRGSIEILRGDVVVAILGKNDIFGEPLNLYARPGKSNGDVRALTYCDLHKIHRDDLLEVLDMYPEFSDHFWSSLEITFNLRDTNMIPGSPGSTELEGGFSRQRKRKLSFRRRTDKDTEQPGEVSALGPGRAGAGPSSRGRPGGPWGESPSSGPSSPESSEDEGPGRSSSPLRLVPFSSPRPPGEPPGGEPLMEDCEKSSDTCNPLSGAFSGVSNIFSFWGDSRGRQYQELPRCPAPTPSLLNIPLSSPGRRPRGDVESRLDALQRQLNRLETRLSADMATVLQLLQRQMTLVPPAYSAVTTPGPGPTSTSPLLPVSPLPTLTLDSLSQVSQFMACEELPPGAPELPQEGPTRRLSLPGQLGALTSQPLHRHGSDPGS
The mark [2] stands for this setting: read-out: Kv4.3 charge in %: remaining current measured after application of the compound and relative to the blank.
Where [3] appears, read: read-out: Kv4.3 peak in %: remaining peak height measured after application of the compound and relative to the blank.

Where two headings read alike, the source gives them in different places.

Excerpt for hERG potassium channel: For this experiment HEK 293 T-REx HERG cells (#23) were used. This cell line made by IonGate is characterized by the inducible expression of the hERG gene. The T-REx™ System (Invitrogen, Karlsruhe, Germany) is a tetracycline-regulated mammalian expression system that uses regulatory elements from the E. coli Tn10-encoded tetracycline (Tet) resistance operon. In the absence of Tet the expression is repressed. Tetracycline regulation in the T-REx™ System is based on the binding of tetracycline to the Tet repressor and derepression of the promoter controlling expression of the hERG gene. Addition of Tet to the cell culture media results in expression of the hERG potassium channel.
To construct the HEK 293 T-REx HERG cell line, the hERG gene was ligated into the inducible expression vector pcDNA4/TO (→pc4TO-HERG) and transfected into HEK 293 T-REx cells (this cell line stably expresses the Tet repressor and was purchased at Invitrogen). Stable cell clones were isolated after selection with Blasticidin (5 μg/ml) and Zeocin™ (300 μg/ml). The clones were electrophysiological characterized after induction with 1 μg/ml Tet.
Experiments were performed using the patch clamp set-up. Technical equipment needed for manipulation of the cells was placed on a vibration-isolated table and shielded with a Faraday cage to minimize electrical noise. The amplifier and control system were placed in a rack outside the Faraday cage. The system consisted of an EPC9 or EPC10 patch clamp amplifier (HEKA, Lambrecht, Germany), and the perfusion system DADVC8 (ALA Scientific, New York, USA) controlled by the Pulse software package (HEKA, Lambrecht, Germany) installed on a personal computer.
The cells used for this experiment were kept in continuous culture under standard conditions (37° C., air supplemented with 5% CO2). The HEK 293 T-REx HERG cells were kept in minimal essential medium (MEM) supplemented with 100 U/ml Penicillin, 100 μg/ml Streptomycin, 10% fetal calf serum (FCS), 1% non-essential amino acids (NEAA), 2.5 μg/ml amphotericin, 300 μg/ml Zeocin™ and 5 μg/ml Blasticidin. Cells were passed every 3-4 days after detachment using a Trypsin solution. The quality of the cultured cells was guaranteed by vitality and contamination tests.
At least 18 hours prior to electrophysiological experiments the cells were detached by application of iced PBS (phosphate buffered saline) or Trypsin and replated on cover slips. 1 μg/ml Tet was added to the cells to induce hERG expression.
Activity of the cardiac hERG channel was investigated using the patch clamp technique in its whole cell mode. This means that the current needed for clamping the whole cell expressing the K^+-channel protein to a specific potential was measured. The pipettes used for patch clamping were made of borosilicate glass. Measurements were performed at room temperature (20-25° C.). In each experiment (i.e. each cell) only one concentration of the compound was investigated—no cumulative dosages were performed. Each cell acted as its own control. The effect of the compounds on hERG mediated currents was investigated at one concentration (10 μM) with two replicates each (c=1, n=2).
Between voltage pulses the cell was clamped to a holding potential of −80 mV (inside).
(b) and (c) were used to characterize the properties of the hERG channel and to check the quality of the individual patch clamp experiment (voltage control). Each test protocol consisted of 6 segments.

For orientation: IC50 means the midpoint of a concentration-inhibition curve. Turning to `CN(CCCN1c2ccccc2CCc2ccccc21)C(=O)c1cc2cc(Cl)ccc2o1` [Compound 4, 5-chloro-benzofuran-2-carboxylic acid [3-(10,11-dihydro-dibenzo[b,f]azepin-5-yl)-propyl]-methyl-amide], the half-maximal inhibitory concentration (IC50) in data set [1] (Table 12, read-out: Kv4.3 charge IC50) was found to be 3.81 µM; on hERG potassium channel, 20 µM. In addition, the “Ratio hERG/Kv4.3” value at hERG potassium channel (selectivity Kv4.3 vs hERG, patch clamp) is reported as 5.2.

A word on the melting point: it is the temperature, or range, at which the solid turns liquid. As to `O=C(NCc1ccc2c(c1)OCO2)c1cc2cc(Cl)ccc2o1` [Compound 92], the melting point lay in the range of 144 to 145.9 °C. For the same compound, the remaining activity at 1 µM in data set [1] (setting [2]) worked out at 64%. The remaining activity at 1 µM in data set [1] (setting [3]) came out at 91%. Moreover, the “hERG (%)” value on hERG potassium channel (at 1 μM) is 88% at 1 μM.

In turn, `COc1ccc(CNC(=O)c2oc3ccccc3c2C)c(OC)c1` [Compound 43, 3-methyl-benzofuran-2-carboxylic acid 2,4-dimethoxy-benzylamide] showed a melting point of 110.7 to 111.5 °C. In data set [1] (setting [2]), the remaining activity at 1 µM is 70%. In addition, the remaining activity at 1 µM in data set [1] (setting [3]) was 94%. Also, on hERG potassium channel (10 μM), the “hERG (%)” value is given as 61%.

Regarding `N#CCCN(Cc1ccccc1)C(=O)c1cc2cc(Cl)ccc2o1` [Compound 109, 5-chloro-benzofuran-2-carboxylic acid benzyl-(2-cyano-ethyl)-amide], the remaining activity at 1 µM in data set [1] (setting [2]) was 74%; in data set [1] (setting [3]) it was 97%. Moreover, the “hERG (%)” value at hERG potassium channel (10 μM) is listed as 34%.

As to `COc1ccc(CNC(=O)c2oc3ccc(Cl)cc3c2C)c(OC)c1` [Compound 16, 5-choro-3-methyl-benzofuran-2-carboxylic acid 2,4-dimethoxy-benzylamide], the melting point is 139.8 to 140.4 °C. In data set [1] (setting [2]), the remaining activity at 1 µM stood at 24%. Further, the remaining activity at 1 µM in data set [1] (setting [3]) is 88%. The “hERG (%)” value at hERG potassium channel (10 μM) turned out to be 47%.

Take `O=C(OCc1ccccc1)c1cc2cc(Cl)ccc2o1` [Compound 44, 5-chloro-benzofuran-2-carboxylic benzyl ester]: the melting point was 76.9 to 77.3 °C. The remaining activity at 1 µM in data set [1] (setting [2]) worked out at 45%. Moreover, in data set [1] (setting [3]), the remaining activity at 1 µM was found to be 80%. The “hERG (%)” value on hERG potassium channel (10 μM) is reported as 28%.

As for `COc1ccc(CNC(=O)c2cc3ccccc3s2)c(OC)c1` [Compound 32, benzo[b]thiophene-2-carboxylic acid 2,4-dimethoxy-benzylamide], the melting point was in the range of 134.4 to 135.3 °C. Further, the remaining activity at 1 µM in data set [1] (setting [2]) is 75%. In data set [1] (setting [3]), the remaining activity at 1 µM came out at 100%.

Compound `O=C(c1cc2cc(Cl)ccc2o1)N1CC=C(c2ccc(F)cc2)CC1` [Compound 93, (5-chloro-benzofuran-2-yl)-[4-(4-fluoro-phenyl)-3,6-dihydro-2H-pyridin-1-yl]-methanone] gave a melting point of 111.3 to 116.6 °C. Further, the remaining activity at 1 µM in data set [1] (setting [2]) turned out to be 73%. In addition, in data set [1] (setting [3]), the remaining activity at 1 µM came out at 89%.

On to `O=C(c1cc2cc(Cl)ccc2o1)N1Cc2ccccc2C1` [Compound 26, (5-chloro-benzofuran-2-yl)-(1,3-dihydro-isoindol-2-yl)-methanone], for which the melting point lay in the range of 187.1 to 188.5 °C. In addition, the remaining activity at 1 µM in data set [1] (setting [2]) came to 81%. In data set [1] (setting [3]), the remaining activity at 1 µM came out at 99%.

The compound `CN(C)c1ccc(CNC(=O)c2cc3cc(Cl)ccc3o2)cc1` [Compound 64, 5-chloro-benzofuran-2-carboxylic acid 4-dimethylamino-benzylamide] gave a melting point of 178.6 to 179.7 °C. Moreover, the remaining activity at 1 µM in data set [1] (setting [2]) came to 76%. For the same compound, the remaining activity at 1 µM in data set [1] (setting [3]) stood at 85%.

Turning to `O=C(c1cc2cc(Cl)ccc2o1)N1CCCCC1Cc1ccccc1` (stereo not shown) [Compound 28, (2-benzyl-piperidin-1-yl)-(5-chloro-benzofuran-2-yl)-methanone], the results for the remaining activity at 1 µM in data set [1] (setting [2]) and in data set [1] (setting [3]) were 38% and 86%, respectively. For the same compound, the “hERG (%)” value at hERG potassium channel (10 μM) was found to be 6%.

In the case of `COc1ccc(CNC(=O)c2sc3ccc(Cl)cc3c2C)c(OC)c1` [Compound 21], the melting point fell in the range of 146.8 to 147.8 °C. Moreover, in data set [1] (setting [2]), the remaining activity at 1 µM is 50%. Moreover, the remaining activity at 1 µM in data set [1] (setting [3]) was determined as 92%. In addition, on hERG potassium channel (10 μM), the “hERG (%)” value is on record as 100%.

`COc1ccc(CNC(=O)c2cc3cc(Cl)ccc3n2C)c(OC)c1` [Compound 19, 5-chloro-1-methyl-1H-indole-2-carboxylic acid 2,4-dimethoxy-benzylamide] displayed a melting point of 150.8 to 152.7 °C. In data set [1] (setting [2]), the remaining activity at 1 µM turned out to be 44%. Moreover, in data set [1] (setting [3]), the remaining activity at 1 µM was 87%. Further, the “hERG (%)” value on hERG potassium channel (10 μM) is 35%.

Consider `O=C(c1cc2cc(Cl)ccc2o1)N1CCC(c2ccccc2)CC1` [Compound 38, (5-chloro-benzofuran-2-yl)-(4-phenyl-piperidin-1-yl)-methanone], for which the melting point fell in the range of 101 to 101.6 °C. In data set [1] (setting [2]), the remaining activity at 1 µM came to 89%. Besides, the remaining activity at 1 µM in data set [1] (setting [3]) was determined as 99%.

`COc1ccc(CNC(=O)c2oc3ccccc3c2-n2cccc2)c(OC)c1` [Compound 18, 3-pyrrol-1-yl-benzofuran-2-carboxylic acid 2,4-dimethoxy-benzylamide] had a melting point of 46 to 51.8 °C. For the same compound, the remaining activity at 1 µM in data set [1] (setting [2]) came out at 45%. Besides, the remaining activity at 1 µM in data set [1] (setting [3]) turned out to be 88%. For the same compound, at hERG potassium channel (10 μM), the “hERG (%)” value is reported as 41%.

The values are drawn from patent US20080039442A1, “Compounds With Kv4 Ion Channel Activity” (Devgen NV, priority 2004, published 2008).
